Structures are written as SMILES.

The experiment addresses T1, human TLR9 (Homo sapiens, UniProt Q9NR96).
T1 construct: host or cells: HEK-Blue cells
T1 sequence (Q9NR96 26-1032): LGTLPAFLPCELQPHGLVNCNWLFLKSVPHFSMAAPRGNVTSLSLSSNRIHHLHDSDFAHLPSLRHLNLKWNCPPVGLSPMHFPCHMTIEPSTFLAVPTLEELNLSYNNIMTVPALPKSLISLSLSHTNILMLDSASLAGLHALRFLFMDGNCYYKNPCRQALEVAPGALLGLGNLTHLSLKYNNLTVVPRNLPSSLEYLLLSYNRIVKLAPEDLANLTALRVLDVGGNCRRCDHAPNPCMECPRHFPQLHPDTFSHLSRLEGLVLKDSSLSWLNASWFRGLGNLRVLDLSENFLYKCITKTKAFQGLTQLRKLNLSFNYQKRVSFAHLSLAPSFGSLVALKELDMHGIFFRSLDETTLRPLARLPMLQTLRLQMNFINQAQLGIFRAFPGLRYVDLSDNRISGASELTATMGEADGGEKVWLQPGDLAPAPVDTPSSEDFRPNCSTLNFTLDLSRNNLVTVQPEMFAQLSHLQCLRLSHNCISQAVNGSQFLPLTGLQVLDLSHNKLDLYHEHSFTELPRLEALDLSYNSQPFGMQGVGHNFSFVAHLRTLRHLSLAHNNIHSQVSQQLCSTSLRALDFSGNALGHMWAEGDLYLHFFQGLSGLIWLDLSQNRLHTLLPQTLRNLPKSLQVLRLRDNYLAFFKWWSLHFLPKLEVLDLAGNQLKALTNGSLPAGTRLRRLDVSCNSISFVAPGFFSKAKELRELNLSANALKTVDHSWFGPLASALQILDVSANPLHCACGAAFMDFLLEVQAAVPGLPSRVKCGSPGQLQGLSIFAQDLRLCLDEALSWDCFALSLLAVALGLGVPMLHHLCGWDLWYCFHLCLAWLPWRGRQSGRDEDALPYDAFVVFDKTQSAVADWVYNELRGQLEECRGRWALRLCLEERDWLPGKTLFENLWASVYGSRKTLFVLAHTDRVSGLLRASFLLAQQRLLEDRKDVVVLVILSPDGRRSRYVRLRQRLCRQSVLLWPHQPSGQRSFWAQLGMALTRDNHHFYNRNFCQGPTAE
Nature of the experiment: TLR9 inhibition reporter assay (HEK-Blue cells, SEAP reporter). The conditions noted are these: HEK-Blue cells overexpressing human TLR9, stimulated with ODN2006 5 nM, 22 hour incubation. It is filed as cell-based. As to the method:
TLR7/8/9 Inhibition Reporter Assays
HEK-Blue™-cells (Invivogen) overexpressing human TLR7, TLR8 or TLR9 receptors were used for screening inhibitors of these receptors using an inducible SEAP (secreted embryonic alkaline phosphatase) reporter gene under the control of the IFN-β minimal promoter fused to five NF-κB and AP-1-binding sites. Briefly, cells are seeded into Greiner 384 well plates (15000 cells per well for TLR7, 20,000 for TLR8 and 25,000 for TLR9) and then treated with test compounds in DMSO to yield a final dose response concentration range of 0.05 nM-50 μM. […] After a 22 hour incubation at 37° C., 5% CO2, SEAP levels are determined with the addition of HEK-Blue™ Detection reagent (Invivogen), a cell culture medium that allows for detection of SEAP, according to manufacturer's specifications. The percent inhibition is determined as the % reduction in the HEK-Blue signal present in wells treated with agonist plus DMSO alone compared to wells treated with a known inhibitor.

For `COc1ccc(-c2[nH]c3cnc(-c4ccc(N5CCN(C(C)C)CC5)cc4)cc3c2C)cc1OC` [Example 1, 2-(3,4-Dimethoxyphenyl)-5-(4-(4-isopropylpiperazin-1-yl)phenyl)-3-methyl-1H-pyrrolo[2,3-c]pyridine], the IC50 is 161 nM. Take `COc1ccc(-c2c(C)[nH]c3cnc(-c4ccc(N5CCN(C(C)C)CC5)cc4)cc23)cc1OC` [Example 2, 3-(3,4-dimethoxyphenyl)-5-(4-(4-isopropylpiperazin-1-yl)phenyl)-2-methyl-1H-pyrrolo[2,3-c]pyridine]: inhibition was half-maximal at 157 nM (IC50). To `COc1ccc(-c2c(C)n(C)c3cnc(-c4ccc(N5CCN(CC(C)(C)O)CC5)cc4)cc23)cc1OC` [Example 3, 1-(4-(4-(3-(3,4-Dimethoxyphenyl)-1,2-dimethyl-1H-pyrrolo[2,3-c]pyridin-5-yl)phenyl)piperazin-1-yl)-2-methylpropan-2-ol] belongs 82 nM; to `COc1ccc(-c2c(C)[nH]c3cnc(C4CCN(C5CCN(C(=O)OCc6ccccc6)CC5)CC4)cc23)cc1OC` [Example 4, Benzyl 4-(3-(3,4-dimethoxyphenyl)-2-methyl-1H-pyrrolo[2,3-c]pyridin-5-yl)-[1,4′-bipiperidine]-1′-carboxylate], 243 nM; to `COc1ccc(-c2c(C)[nH]c3cnc(C4CCN(C(=O)C5CCN(C6CC6)CC5)CC4)cc23)cc1OC` [Example 5, (1-Cyclopropylpiperidin-4-yl)(4-(3-(3,4-dimethoxyphenyl)-2-methyl-1H-pyrrolo[2,3-c]pyridin-5-yl)piperidin-1-yl)methanone], 133 nM.

As to `COc1ccc(-c2c(C)[nH]c3cnc(C4CCN(c5cc(C)nc(C)c5)CC4)cc23)cc1OC` [Example 6, 3-(3,4-Dimethoxyphenyl)-5-(1-(2,6-dimethylpyridin-4-yl)piperidin-4-yl)-2-methyl-1H-pyrrolo[2,3-c]pyridine], the half-maximal inhibitory concentration (IC50) came out at 296 nM. On to `COc1ccc(-c2cc3cnc(-c4ccc(N5CCN(CC6CC6)CC5)cc4)cc3n2C)cc1OC` [Example 9, 6-(4-(4-(Cyclopropylmethyl)piperazin-1-yl)phenyl)-2-(3,4-dimethoxyphenyl)-1-methyl-1H-pyrrolo[3,2-c]pyridine], for which it took 21 nM to reach half-maximal inhibition (IC50). On to `COc1ccc(-c2cc3cnc(-c4ccc(N5CCN(C6CCC6)CC5)cc4)cc3n2C)cc1OC` [Example 10, 6-(4-(4-Cyclobutylpiperazin-1-yl)phenyl)-2-(3,4-dimethoxyphenyl)-1-methyl-1H-pyrrolo[3,2-c]pyridine], for which the midpoint of inhibition, the IC50, lay at 66 nM. To `COc1ccc(-c2c(C)c3cc(C4CCN(C5CCN(CC(C)C)CC5)CC4)ncc3n2C)cc1OC` [Example 13, 2-(3,4-dimethoxyphenyl)-5-(1′-isobutyl-[1,4′-bipiperidin]-4-yl)-1,3-dimethyl-1H-pyrrolo[2,3-c]pyridine] belongs 191 nM. The compound `COc1ccc(-c2c(C)[nH]c3cnc(C4CCN(C5CCN(C(=O)c6ccccc6)CC5)CC4)cc23)cc1OC` [Example 14, (4-(3-(3,4-dimethoxyphenyl)-2-methyl-1H-pyrrolo[2,3-c]pyridin-5-yl)-[1,4′-bipiperidin]-1′-yl) (phenyl)methanone] registered a 50% inhibitory concentration (IC50) of 313 nM. To `COc1ccc(-c2c(C)[nH]c3cnc(C4CCN(C5CCN(C(=O)C(C)C)CC5)CC4)cc23)cc1OC` [Example 15, 1-(4-(3-(3,4-dimethoxyphenyl)-2-methyl-1H-pyrrolo[2,3-c]pyridin-5-yl)-[1,4′-bipiperidin]-1′-yl)-2-methylpropan-1-one] belongs 39 nM; to `COc1ccc(-c2c(C)[nH]c3cnc(C4CCN(C(=O)CN5CCCCC5)CC4)cc23)cc1OC` [Example 16, 1-(4-(3-(3,4-dimethoxyphenyl)-2-methyl-1H-pyrrolo[2,3-c]pyridin-5-yl)piperidin-1-yl)-2-(piperidin-1-yl)ethan-1-one], 84 nM; to `COc1ccc(-c2c(C)n(C)c3cnc(C4CCN(C5CCN(CC(C)C)CC5)CC4)cc23)cc1OC` [Example 17, 3-(3,4-dimethoxyphenyl)-5-(1′-isobutyl-[1,4′-bipiperidin]-4-yl)-1,2-dimethyl-1H-pyrrolo[2,3-c]pyridine], 19 nM. Turning to `COc1ccc(-c2c(C)n(C)c3cnc(C4CCN(C5CCN(C(=O)C(C)C)CC5)CC4)cc23)cc1OC` [Example 18, 1-(4-(3-(3,4-dimethoxyphenyl)-1,2-dimethyl-1H-pyrrolo[2,3-c]pyridin-5-yl)-[1,4′-bipiperidin]-1′-yl)-2-methylpropan-1-one], the IC50 stood at 194 nM.

The compound `COc1ccc(-c2c(C)n(C)c3cnc(C4CCN(C5CCN(C(=O)c6ccccc6)CC5)CC4)cc23)cc1OC` [Example 19, (4-(3-(3,4-dimethoxyphenyl)-1,2-dimethyl-1H-pyrrolo[2,3-c]pyridin-5-yl)-[1,4′-bipiperidin]-1′-yl)(phenyl)methanone] gave a 50% inhibitory concentration (IC50) of 130 nM.

`CCOC(=O)N1CCC(N2CCC(c3cc4c(-c5ccc(OC)c(OC)c5)c(C)n(C)c4cn3)CC2)CC1` [Example 20, ethyl 4-(3-(3,4-dimethoxyphenyl)-1,2-dimethyl-1H-pyrrolo[2,3-c]pyridin-5-yl)-[1,4′-bipiperidine]-1′-carboxylate]: the IC50 is 153 nM. The IC50 values of the last two compounds are within 1.5-fold of each other.

The compound `COc1ccc(-c2c(C)[nH]c3cnc(C4CCN(C(=O)CN5CCCC5)CC4)cc23)cc1OC` [Example 21, 1-(4-(3-(3,4-dimethoxyphenyl)-2-methyl-1H-pyrrolo[2,3-c]pyridin-5-yl)piperidin-1-yl)-2-(pyrrolidin-1-yl)ethan-1-one] showed a 50% inhibitory concentration (IC50) of 603 nM.

The compound `COc1ccc(-c2c(C)[nH]c3cnc(C4CCN(C(=O)CN(C)C)CC4)cc23)cc1OC` [Example 22, 1-(4-(3-(3,4-dimethoxyphenyl)-2-methyl-1H-pyrrolo[2,3-c]pyridin-5-yl)piperidin-1-yl)-2-(dimethylamino)ethan-1-one] returned an IC50 of 1570 nM.

The compound `COc1ccc(-c2c(C)[nH]c3cnc(C4CCN(C(=O)CCN5CCCC5)CC4)cc23)cc1OC` [Example 23, 1-(4-(3-(3,4-dimethoxyphenyl)-2-methyl-1H-pyrrolo[2,3-c]pyridin-5-yl)piperidin-1-yl)-3-(pyrrolidin-1-yl)propan-1-one] displayed a 50% inhibitory concentration (IC50) of 1110 nM. As for `COc1ccc(-c2cc3cnc(-c4ccc(N5CCN(C(C)C)CC5)cc4)cc3n2C)cc1OC` [Example 24, 2-(3,4-dimethoxyphenyl)-6-(4-(4-isopropylpiperazin-1-yl)phenyl)-1-methyl-1H-pyrrolo[3,2-c]pyridine], the figure is 59 nM. As for `COc1ccc(-c2cc3cnc(C4CCN(C(=O)CN5CCCCC5)CC4)cc3n2C)cc1OC` [Example 25, 1-(4-(2-(3,4-dimethoxyphenyl)-1-methyl-1H-pyrrolo[3,2-c]pyridin-6-yl)piperidin-1-yl)-2-(piperidin-1-yl)ethan-1-one], 197 nM corresponded to half-maximal inhibition (IC50). This IC50 is about 3.3-fold higher than that of the compound before. As for `COc1ccc(-c2cc3cnc(C4CCN(C5CCN(C(=O)c6ccccc6)CC5)CC4)cc3n2C)cc1OC` [Example 26, (4-(2-(3,4-dimethoxyphenyl)-1-methyl-1H-pyrrolo[3,2-c]pyridin-6-yl)-[1,4′-bipiperidin]-1′-yl)(phenyl)methanone], the figure is 9 nM. The compound `COc1ccc(-c2cc3cnc(-c4ccc(N5CCN(C)CC5)cc4)cc3n2C)cc1OC` [Example 27, 2-(3,4-dimethoxyphenyl)-1-methyl-6-(4-(4-methylpiperazin-1-yl)phenyl)-1H-pyrrolo[3,2-c]pyridine] displayed an IC50 of 45 nM. In the case of `COc1ccc(-c2cc3cnc(C4CCN(Cc5ccc(C(F)(F)F)nc5)CC4)cc3n2C)cc1OC` [Example 28, 2-(3,4-dimethoxyphenyl)-1-methyl-6-(1-((6-(trifluoromethyl)pyridin-3-yl)methyl)piperidin-4-yl)-1H-pyrrolo[3,2-c]pyridine], it took 269 nM to reach half-maximal inhibition (IC50). Against the preceding compound, the IC50 is about 6-fold higher. To `COc1ccc(-c2cc3cnc(-c4ccc(N5CCN(C(=O)c6ccccc6)CC5)cc4)cc3n2C)cc1OC` [Example 29, (4-(4-(2-(3,4-dimethoxyphenyl)-1-methyl-1H-pyrrolo[3,2-c]pyridin-6-yl)phenyl)piperazin-1-yl)(phenyl)methanone] belongs 399 nM.

For the origin of these results see patent US12590091B2, “1H-pyrrolo[3,2-C]pyridine and 1H-pyrrolo[2,3-C]pyridine derivatives as TLR9 inhibitors for the treatment of fibrosis” (BRISTOL-MYERS SQUIBB COMPANY, priority 2020, dated 2026).
